Assay results reported in ChEMBL document CHEMBL1201862, “PubChem BioAssay data set” (2004).
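In this assay, cells in 96-well plates receive the compound at five concentrations for 48 hours. Endpoints are linearly interpolated between the surrounding concentrations. Abbreviation: GI50, concentration required for 50% inhibition of growth.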 The source made the active and inactive calls. Cut-off read from the data, not from the text of the source: active = GI50 up to about 1.1 µM and inactive = higher.

Columns and labels:
Assay in all cases: DTP human tumour cell line panel, 48 h
RPMI-8226 = tested on: RPMI-8226
MCF7 = tested on: MCF7
HCT-116 = tested on: HCT-116
UO-31 = tested on: UO-31
UACC-257 = tested on: UACC-257
HOP-92 = tested on: HOP-92
OVCAR-5 = tested on: OVCAR-5
SK-OV-3 = tested on: SK-OV-3
SK-MEL-28 = tested on: SK-MEL-28
SK-MEL-2 = tested on: SK-MEL-2
LOX IMVI = tested on: LOX IMVI
HT-29 = tested on: HT-29
HOP-62 = tested on: HOP-62
PC-3 = tested on: PC-3
SR = tested on: SR
OVCAR-3 = tested on: OVCAR-3
EKVX = tested on: EKVX
SNB-19 = tested on: SNB-19
HL-60 = tested on: HL-60
786-0 = tested on: 786-0
A549 = tested on: A549
T47D = tested on: T47D
NCI-H522 = tested on: NCI-H522
K562 = tested on: K562
BT-549 = tested on: BT-549
DU-145 = tested on: DU-145
MOLT-4 = tested on: MOLT-4
COLO 205 = tested on: COLO 205
UACC-62 = tested on: UACC-62
NCI/ADR-RES = tested on: NCI/ADR-RES
M14 = tested on: M14
IGROV-1 = tested on: IGROV-1
SF-539 = tested on: SF-539
ACHN = tested on: ACHN
SN12C = tested on: SN12C
RXF 393 = tested on: RXF 393
OVCAR-8 = tested on: OVCAR-8
HCT-15 = tested on: HCT-15
TK-10 = tested on: TK-10
NCI-H460 = tested on: NCI-H460
MDA-MB-435 = tested on: MDA-MB-435
SF-295 = tested on: SF-295
CCRF-CEM = tested on: CCRF-CEM
MDA-N = tested on: MDA-N
SK-MEL-5 = tested on: SK-MEL-5
NCI-H226 = tested on: NCI-H226
KM12 = tested on: KM12
MDA-MB-231 = tested on: MDA-MB-231
OVCAR-4 = tested on: OVCAR-4
NCI-H23 = tested on: NCI-H23
CAKI-1 = tested on: CAKI-1
A498 = tested on: A498
U-251 = tested on: U-251
SW-620 = tested on: SW-620
HCC 2998 = tested on: HCC 2998
SNB-75 = tested on: SNB-75
SF-268 = tested on: SF-268
Hs-578T = tested on: Hs-578T
Malme-3M = tested on: Malme-3M

O=C(O)CC(CC(=O)O)n1cccc1
GI50 (RPMI-8226): > 100 µM (inactive)
GI50 (MCF7): > 100 µM (inactive)
GI50 (HCT-116): > 100 µM (inactive)
GI50 (UO-31): > 100 µM (inactive)
GI50 (UACC-257): > 100 µM (inactive)
GI50 (HOP-92): > 100 µM (inactive)
GI50 (OVCAR-5): > 100 µM (inactive)
GI50 (SK-OV-3): > 100 µM (inactive)
GI50 (SK-MEL-28): > 100 µM (inactive)
GI50 (SK-MEL-2): > 100 µM (inactive)
GI50 (LOX IMVI): > 100 µM (inactive)
GI50 (HT-29): > 100 µM (inactive)
GI50 (HOP-62): > 100 µM (inactive)
GI50 (PC-3): > 100 µM (inactive)
GI50 (SR): > 100 µM (inactive)
GI50 (OVCAR-3): > 100 µM (inactive)
GI50 (EKVX): > 100 µM (inactive)
GI50 (SNB-19): > 100 µM (inactive)
GI50 (HL-60): > 100 µM (inactive)
GI50 (786-0): > 100 µM (inactive)
GI50 (A549): > 100 µM (inactive)
GI50 (T47D): > 100 µM (inactive)
GI50 (NCI-H522): > 100 µM (inactive)
GI50 (K562): > 100 µM (inactive)
GI50 (BT-549): > 100 µM (inactive)
GI50 (DU-145): > 100 µM (inactive)
GI50 (MOLT-4): > 100 µM (inactive)
GI50 (COLO 205): > 100 µM (inactive)
GI50 (UACC-62): > 100 µM (inactive)
GI50 (NCI/ADR-RES): > 100 µM (inactive)
GI50 (M14): > 100 µM (inactive)
GI50 (IGROV-1): > 100 µM (inactive)
GI50 (SF-539): > 100 µM (inactive)
GI50 (ACHN): > 100 µM (inactive)
GI50 (SN12C): > 100 µM (inactive)
GI50 (RXF 393): > 100 µM (inactive)
GI50 (OVCAR-8): > 100 µM (inactive)
GI50 (HCT-15): > 100 µM
GI50 (TK-10): > 100 µM (inactive)
GI50 (NCI-H460): > 100 µM (inactive)
GI50 (MDA-MB-435): > 100 µM (inactive)
GI50 (SF-295): > 100 µM (inactive)
GI50 (CCRF-CEM): > 100 µM (inactive)
GI50 (MDA-N): > 100 µM (inactive)
GI50 (SK-MEL-5): > 100 µM (inactive)
GI50 (NCI-H226): > 100 µM (inactive)
GI50 (KM12): > 100 µM (inactive)
GI50 (MDA-MB-231): > 100 µM (inactive)
GI50 (OVCAR-4): > 100 µM (inactive)
GI50 (NCI-H23): > 100 µM (inactive)
GI50 (CAKI-1): > 100 µM (inactive)
GI50 (A498): > 100 µM (inactive)
GI50 (U-251): > 100 µM (inactive)
GI50 (SW-620): > 100 µM (inactive)

c1ccc2sc(C3(N4CCCCCC4)CCCCC3)cc2c1
GI50 (MCF7): 17.8 µM (inactive)
GI50 (HCT-116): 20.3 µM (inactive)
GI50 (UO-31): 20.3 µM (inactive)
GI50 (UACC-257): 21.5 µM (inactive)
GI50 (HOP-92): 17.6 µM (inactive)
GI50 (OVCAR-5): 17.8 µM (inactive)
GI50 (SK-OV-3): 29 µM (inactive)
GI50 (HCC 2998): 15.5 µM (inactive)
GI50 (SK-MEL-28): 26.1 µM (inactive)
GI50 (LOX IMVI): 20.6 µM (inactive)
GI50 (HT-29): 15.3 µM (inactive)
GI50 (HOP-62): 26.2 µM (inactive)
GI50 (OVCAR-3): 16.3 µM (inactive)
GI50 (EKVX): 22.8 µM (inactive)
GI50 (SNB-75): 23.8 µM (inactive)
GI50 (SNB-19): 18.7 µM (inactive)
GI50 (HL-60): 24.2 µM (inactive)
GI50 (786-0): 19.1 µM (inactive)
GI50 (A549): 35.2 µM (inactive)
GI50 (NCI-H522): 21.1 µM (inactive)
GI50 (K562): 16.7 µM (inactive)
GI50 (BT-549): 25 µM (inactive)
GI50 (DU-145): 29.4 µM (inactive)
GI50 (MOLT-4): 15.6 µM (inactive)
GI50 (COLO 205): 16 µM (inactive)
GI50 (SF-268): 25.8 µM (inactive)
GI50 (UACC-62): 20.4 µM (inactive)
GI50 (NCI/ADR-RES): 21.8 µM (inactive)
GI50 (M14): 19.3 µM (inactive)
GI50 (IGROV-1): 36.1 µM (inactive)
GI50 (SF-539): 23.4 µM (inactive)
GI50 (ACHN): 30.8 µM (inactive)
GI50 (SN12C): 20.6 µM (inactive)
GI50 (RXF 393): 17.7 µM (inactive)
GI50 (OVCAR-8): 29.5 µM (inactive)
GI50 (HCT-15): 22.3 µM
GI50 (TK-10): 22.8 µM (inactive)
GI50 (NCI-H460): 18.8 µM (inactive)
GI50 (MDA-MB-435): 25.3 µM (inactive)
GI50 (Hs-578T): 22.4 µM (inactive)
GI50 (SF-295): 20.1 µM (inactive)
GI50 (CCRF-CEM): 16.7 µM (inactive)
GI50 (MDA-N): 28.9 µM (inactive)
GI50 (SK-MEL-5): 17.5 µM (inactive)
GI50 (NCI-H226): 22.6 µM (inactive)
GI50 (KM12): 16.1 µM (inactive)
GI50 (MDA-MB-231): 27.8 µM (inactive)
GI50 (OVCAR-4): 28.4 µM (inactive)
GI50 (NCI-H23): 20 µM (inactive)
GI50 (CAKI-1): 36.5 µM (inactive)
GI50 (A498): 18.1 µM (inactive)
GI50 (U-251): 19.2 µM (inactive)
GI50 (SW-620): 18.2 µM (inactive)

CC1(C)Cc2c(cnn2-c2ccc(C(F)(F)F)cc2)-c2[nH]c(-c3ccc(O)cc3)nc21
GI50 (MCF7): 14.2 µM (inactive)
GI50 (HCT-116): 13.1 µM (inactive)
GI50 (UO-31): 15.3 µM (inactive)
GI50 (UACC-257): 16.4 µM (inactive)
GI50 (HOP-92): 17.9 µM (inactive)
GI50 (OVCAR-5): 17.8 µM (inactive)
GI50 (SK-OV-3): 21.4 µM (inactive)
GI50 (HCC 2998): 15.7 µM (inactive)
GI50 (SK-MEL-28): 13.7 µM (inactive)
GI50 (LOX IMVI): 17.8 µM (inactive)
GI50 (HT-29): 3.99 µM (inactive)
GI50 (HOP-62): 21.4 µM (inactive)
GI50 (PC-3): 16 µM (inactive)
GI50 (SR): 4.71 µM (inactive)
GI50 (OVCAR-3): 13.9 µM (inactive)
GI50 (EKVX): 20.4 µM (inactive)
GI50 (SNB-75): 8.81 µM (inactive)
GI50 (SNB-19): 16.6 µM (inactive)
GI50 (HL-60): 4.72 µM (inactive)
GI50 (786-0): 3.32 µM (inactive)
GI50 (A549): 12.7 µM (inactive)
GI50 (T47D): 16.7 µM (inactive)
GI50 (NCI-H522): 8.99 µM (inactive)
GI50 (K562): 5.15 µM (inactive)
GI50 (BT-549): 12.8 µM (inactive)
GI50 (DU-145): 17.5 µM (inactive)
GI50 (MOLT-4): 2.05 µM (inactive)
GI50 (COLO 205): 13.7 µM (inactive)
GI50 (SF-268): 9.16 µM (inactive)
GI50 (UACC-62): 16.2 µM (inactive)
GI50 (NCI/ADR-RES): 19.5 µM (inactive)
GI50 (M14): 14.9 µM (inactive)
GI50 (IGROV-1): 19.4 µM (inactive)
GI50 (ACHN): 14.6 µM (inactive)
GI50 (SN12C): 16.7 µM (inactive)
GI50 (RXF 393): 3.46 µM (inactive)
GI50 (OVCAR-8): 20.8 µM (inactive)
GI50 (HCT-15): 11.1 µM
GI50 (TK-10): 16.5 µM (inactive)
GI50 (NCI-H460): 14.4 µM (inactive)
GI50 (MDA-MB-435): 17.2 µM (inactive)
GI50 (SF-295): 16 µM (inactive)
GI50 (CCRF-CEM): 2.18 µM (inactive)
GI50 (MDA-N): 14.6 µM (inactive)
GI50 (Malme-3M): 14.6 µM (inactive)
GI50 (SK-MEL-5): 16.9 µM (inactive)
GI50 (NCI-H226): 27.2 µM (inactive)
GI50 (KM12): 13 µM (inactive)
GI50 (MDA-MB-231): 22.3 µM (inactive)
GI50 (OVCAR-4): 12.2 µM (inactive)
GI50 (NCI-H23): 18.2 µM (inactive)
GI50 (CAKI-1): 17.4 µM (inactive)
GI50 (A498): 20.4 µM (inactive)
GI50 (U-251): 12.3 µM (inactive)
GI50 (SW-620): 14.5 µM (inactive)
